Data published in publication PMC5356016, “Suppression of Sin3A activity promotes differentiation of pluripotent cells into functional neurons” (Scientific Reports, 2017).
Where no end group is shown, it is not given here.

T1: mouse Sin3A PAH2 (residues 295-385) (mouse, UniProt Q60520 295-385)
T1 construct: Sin3A, mouse, paired amphipathic helix 2 (PAH2) domain, residues 295-385
T1 sequence (looked up): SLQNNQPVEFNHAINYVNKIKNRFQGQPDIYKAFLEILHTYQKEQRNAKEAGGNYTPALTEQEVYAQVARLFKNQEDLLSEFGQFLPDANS

B1: FITC-labeled Mad1 peptide (sequence 6-21 of the Mad1 protein) (peptide)
peptide: RMNIQMLLEAADYLER
modifications: also: FITC label, position not given here
notes: Mad1 protein, residues 6-21; where the FITC is attached may be told there; source: synthetic peptide (solid support, Fmoc/t-Bu strategy)
B2: SAP25 peptide (sequence 171-186 of the SAP25 protein) (peptide)
peptide: AEMIALAGLLQMSQGE
notes: SAP25 protein, residues 171-186; source: synthetic peptide (solid support, Fmoc/t-Bu strategy)
B3: FITC-labeled SAP25 peptide (sequence 171-186 of the SAP25 protein) (peptide)
peptide: AEMIALAGLLQMSQGE
modifications: also: FITC label, position not given here
notes: SAP25 protein, residues 171-186; where the FITC is attached may be told there; source: synthetic peptide (solid support, Fmoc/t-Bu strategy)
B4: Mad1 peptide (sequence 6-21 of the Mad1 protein) (peptide)
peptide: RMNIQMLLEAADYLER
notes: Mad1 protein, residues 6-21; source: synthetic peptide (solid support, Fmoc/t-Bu strategy)
B5: PAH2: mouse Sin3A PAH2 (residues 295–385) (protein)
chain: T1 sequence (looked up)
B6: GST-REST, mouse REST (residues 31-120) (domain or fragment, UniProt Q8VIG1 31-120, looked up)
chain: YDLHELSKAELAAPQLIMLANVALTGEASGSCCDYLVGEERQMAELMPVGDNHFSESEGEGLEESADLKGLENMELGSLELSAVEPQPVF
notes: RE1 silencing transcription factor (REST), mouse, residues 31-120
B7: mouse Sin3A PAH1 (residues 114-195) (domain or fragment, UniProt Q60520 114-195, looked up)
chain: GQQQFQRLKVEDALSYLDQVKLQFGSQPQVYNDFLDIMKEFKSQSIDTPGVISRVSQLFKGHPDLIMGFNTFLPPGYKIEVQ
notes: Sin3A, mouse, paired amphipathic helix 1 (PAH1) domain, residues 114-195

Tests used:
[1] = test system: Wnt/β-catenin pathway; test: Signaling pathway study, Wnt/β-catenin pathway inhibitors in Sin3A knockdown P19 cells; format: cell-based, mouse; conditions: for transcriptional level of NeuroD1 (in words): RT-PCR; for neurogenesis inducing capability of Sin3A-silenced cells (in words) / translational level of β-catenin (in words): versus untreated cells; for neurogenesis inducing capability of Sin3A-silenced cells (in words): at least three experiments; for translational level of β-catenin (in words): western blot
[2] = test system: complex between Tcf4 and β-catenin; conditions: downstream inhibitor for the Wnt/β-catenin pathway; no reference given; cited from earlier work
[3] = test system: P19 cells; test: Astrocyte differentiation of P19 cells (GFAP and S100); format: cell-based, mouse; conditions: 1 μM retinoic acid, 10 days, untransfected P19 cells; Tuj1, GFAP, S100 immunocytochemistry
[4] = test system: PDZ domain of Dishevelled (Dvl/Dsh) protein; conditions: upstream inhibitor for the Wnt/β-catenin pathway; ref [28]; cited from earlier work
[5] = test system: smoothened (SMO); parameters: method as in PMID 12679522; conditions: Shh signaling pathway; ref [30]; cited from earlier work
[6] = test system: Shh signaling pathway; test: Signaling pathway study, Shh pathway inhibitor in Sin3A knockdown P19 cells; format: cell-based, mouse; conditions: 30 μM Cur61414, 10 days; Tuj1 immunocytochemistry, western blot, RT-PCR; at least three experiments
Method: Figure 2 Signaling pathways associated with Sin3A knockdown-induced neurogenesis in P19 cells. (a–c) Sin3A knockdown P19 cells were incubated for 10 days in the absence and presence of an inhibitor for the Wnt pathway, 30 μM NSC668036 or 25 nM PFK118-310. (a) The cells were immunostained with Tuj1 antibody ([…]). (b) Expression levels of β-catenin and Tuj1 were examined by using western blot analysis. (c) Transcriptional levels of Tuj1 and NeuroD1 were examined by using RT-PCR. (d-e) Sin3A knockdown P19 cells were incubated for 10 days in the absence and presence of an inhibitor for the Shh pathway, 30 μM Cur61414. (d) The cells were immunostained with Tuj1 antibody ([…]). (e) The expression level of Tuj1 was examined by using western blot and (f) RT-PCR analyses. All experiments were conducted at least three times.
SMART™ BCA Protein Assay Kit (iNtRON Biot echnology). […]
Sin3A and Sin3B knockdown P19 cells were incubated for 10 days without any treatment. mRNA samples were isolated using an mRNA extraction kit (iNtRON Biotechnology, Inc.) according to the manufacture’s protocol. Samples were analyzed in duplicates on the GeneChip® Mouse Gene 2.0 ST Array (Affymetrix). […]

[7] = molecular target: T1, mouse Sin3A PAH2 (residues 295-385); test: fluorescence polarisation; FITC-labeled Mad1 and SAP25 peptides incubated separately with various concentrations of PAH1 and PAH2; conditions: both partners purified
[8] = molecular target: B7; test: ELISA; competition: PAH1 or PAH2 (1 ug/mL) coated wells pre-incubated 2 h with various concentrations of SAP25 or Mad1 peptide, then GST-REST (2 ug/mL) for 2 h; detected with anti-GST antibody and HRP conjugated secondary antibody; conditions: both partners purified
[9] = molecular target: B7; test: fluorescence polarisation; FITC-labeled Mad1 and SAP25 peptides incubated separately with various concentrations of PAH1 and PAH2; conditions: both partners purified
[10] = molecular target: T1, mouse Sin3A PAH2 (residues 295-385); test: ELISA; competition: PAH1 or PAH2 (1 ug/mL) coated wells pre-incubated 2 h with various concentrations of SAP25 or Mad1 peptide, then GST-REST (2 ug/mL) for 2 h; detected with anti-GST antibody and HRP conjugated secondary antibody; conditions: both partners purified
[11] = test system: mouse REST (residues 31–120); test: ELISA binding of Sin3A PAH1 and PAH2 domains to REST; conditions: wells coated with PAH1 or PAH2 (1 μg/mL), GST-REST 0-2 μg/mL, 2 h, mean ± s.d., n = 3
[12] = molecular target: T1, mouse Sin3A PAH2 (residues 295-385); test: ELISA; Sin3A PAH1 and PAH2 with mouse REST (residues 31-120); who was coated is not told for this experiment; conditions: both partners purified
[13] = molecular target: B6; test: as above; conditions: both partners purified

## Cn1ncnc2c(=O)n(C)c(=O)nc1-2 [PKF118-310]
[1]; 25 nM PKF118-310, 10 days
  transcriptional level of NeuroD1 (in words): greatly reduced
  neurogenesis inducing capability of Sin3A-silenced cells (in words): attenuated
  translational level of β-catenin (in words): markedly decreased
[2]
  inhibition of Tcf4/β-catenin complex formation (in words): blocks the formation of the complex between Tcf4 and β-catenin

## CC1=C(/C=C/C(C)=C/C=C/C(C)=C/C(=O)O)C(C)(C)CCC1 [RA, retinoic acid]
[3]
  neurogenesis and astrogenesis of RA-treated P19 cells (in words): underwent neurogenesis and astrogenesis

## CC(NC(=O)C(OC(=O)C(C)NC(=O)OC(C)(C)C)C(C)C)C(=O)OC(C(=O)O)C(C)C (stereo not shown) [NSC668036]
[1]; 30 μM NSC668036, 10 days
  transcriptional level of NeuroD1 (in words): greatly reduced
  neurogenesis inducing capability of Sin3A-silenced cells (in words): attenuated
  translational level of β-catenin (in words): markedly decreased
[4]
  binding to PDZ domain and inhibition of Dvl-Frizzled interaction (in words): binds to the PDZ domain of Dishevelled (Dvl/Dsh) protein, a key component of Wnt signaling, and inhibits its interaction with Frizzled (Fzd)

## COc1cccc(CN(C(=O)CC(C)(C)C)[C@H]2C[C@@H](C(=O)N3CCNCC3)N(Cc3ccc4c(c3)OCO4)C2)c1 [Cur61414]
[5]
  inhibition of smoothened (in words): a known inhibitor of smoothened (SMO)
[6]
  neurogenesis-inducing ability of Sin3A-knockdown cells (in words): greatly reduced

## B1
[7]
  binding result: binds

## B2
[8]
  binding result: binds

## B3
[9]
  binding result: binds

## B4
[10]
  binding result: binds

## B5
[11]
  binding to REST (in words): bind with near equal strengths to REST

## B6
[12]
  binding result: binds

## B7
[13]
  binding result: binds
[11]
  binding to REST (in words): bind with near equal strengths to REST
